Converted amounts (≈) assume the structure as drawn.
Assays:
[1] = tested on: M. tuberculosis H37Rv; assay: Antitubercular activity, Microplate Alamar Blue test (MABA); assay type: cell-based, Mycobacterium tuberculosis; details: n = 3; for MIC: Mycobacterium tuberculosis, H37RV
[2] = target: InhA enzyme from M. tuberculosis (Mycobacterium tuberculosis, UniProt P9WGR1); assay: InhA inhibition assay; assay type: biochemical; details: for inhibition at 50 µM: read-out: % InhA Inhibition at 50 µM
[3] = tested on: human lung cancer cell line A549; assay: MTT-based cytotoxicity; assay type: cell-based; details: Homo sapiens, A549; MTT assay
Experimental: The cytotoxic effects of seventeen selected molecules were assessed against the A549 human lung adenocarcinoma cell line using the MTT assay. Cisplatin served as the reference drug for comparison. Lower IC50 values indicate higher cytotoxicity.
The cytotoxic activity (IC50) of selected compounds against A549 (lung adenocarcinoma) MV cell-lines was evaluated by performing cellular conversion of MTT [3-(4,5-dimethylthiazo-2-yl)-2,5-diphenyl-tetrazolium bromide] into a formazan product. This evaluation was conducted up to a concentration of 50 mg/mL using the Promega Cell Titre 96 non-radioactive cell proliferation assay, with cisplatin serving as the positive control. Cytotoxicity is commonly quantified by determining the IC50 value, which represents the quantity of a substance that reduces the optical density of treated cells by 50% compared to untreated cells, as measured by the MTT experiment. The results are presented as IC50 values (mean ± standard error of the mean (SEM) obtained from three separate and independent measurements.

[4] = tested on: E. coli ATCC 25922; assay: Antibacterial activity, broth microdilution (E. coli); details: for MIC: Escherichia coli, ATCC25922, read-out: E. coli ATCC 25922 (Gram –ve) MIC, broth microdilution
Experimental: (§1) All twenty-eight molecules were evaluated for in vitro antimicrobial activities that were assessed against Gram +ve and Gram -ve strains.
(§2) The antibacterial inhibitory effects of all compounds were assessed using the broth microdilution method, with ciprofloxacin serving as the reference medication.

[5] = tested on: S. aureus ATCC 29213; assay: Antibacterial activity, broth microdilution (S. aureus); details: Staphylococcus aureus, ATCC29213, read-out: S. aureus ATCC 29213 (Gram +ve) MIC
Experimental: as §1, §2

[6] = target: MtDHFR (Mycobacterium tuberculosis, UniProt P9WNX1); assay: biochemical; assay type: biochemical
Chain of MtDHFR (P9WNX1 whole entry): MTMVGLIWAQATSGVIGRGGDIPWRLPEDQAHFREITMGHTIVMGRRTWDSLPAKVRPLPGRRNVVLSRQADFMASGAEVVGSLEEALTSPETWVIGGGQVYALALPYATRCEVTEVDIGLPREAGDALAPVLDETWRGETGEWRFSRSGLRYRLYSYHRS

Chain of InhA enzyme from M. tuberculosis (P9WGR1 whole entry, looked up): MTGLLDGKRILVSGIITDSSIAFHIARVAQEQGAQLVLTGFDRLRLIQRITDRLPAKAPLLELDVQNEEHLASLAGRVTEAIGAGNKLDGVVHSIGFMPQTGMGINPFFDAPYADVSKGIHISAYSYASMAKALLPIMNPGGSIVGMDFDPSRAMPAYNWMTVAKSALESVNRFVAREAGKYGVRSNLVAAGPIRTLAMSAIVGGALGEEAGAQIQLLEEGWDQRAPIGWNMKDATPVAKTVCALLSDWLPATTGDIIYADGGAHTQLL

Row | SMILES | MIC [1] [µg/mL] | inhibition at 50 µM [2] [%] | IC50 [3] [µg/mL] | MIC [4] [µg/mL] | MIC [5] [µg/mL] | IC50 [6] [µM] | MtDHFR inhibition, in words, compared with trimethoprim [6] | M. tuberculosis H37Rv MIC values [1] [µg/mL] | E. coli ATCC 25922 (Gram –ve) MIC ([4]; broth microdilution) [µg/mL] | % InhA Inhibition at 50 µM ([2]; 50 µM)
1 | CC(=NNC(=O)COC(=O)c1ccc(-n2cccc2)cc1)c1cccc(Br)c1 [Compound 5f, 2-(2-(1-(3-bromophenyl)ethylidene)hydrazinyl)-2-oxoethyl 4-(1H-pyrrol-1-yl)benzoate] | 1.6 (≈ 3.63 µM) | 43 | 275 ± 0.4 (≈ 625 µM) | 1.6 (≈ 3.63 µM) | 3.12 (≈ 7.09 µM) | 153 | – | – | – | –
2 | O=C(OCC(=O)n1[nH]c(=O)ccc1=O)c1ccc(-n2cccc2)cc1 [Compound 4e, 2-(3,6-dioxo-2,3-dihydropyridazin-1(6H)-yl)-2-oxoethyl 4-(1H-pyrrol-1-yl)benzoate] | 1.6 (≈ 4.72 µM) | – | – | 1.6 (≈ 4.72 µM) | 6.25 (≈ 18.4 µM) | 32 | greater inhibition characteristics than trimethoprim | – | – | –
3 | O=C(COC(=O)c1ccc(-n2cccc2)cc1)NN=Cc1ccc([N+](=O)[O-])cc1 [Compound 6c, 2-(2-(4-nitrobenzylidene)hydrazinyl)-2-oxoethyl 4-(1H-pyrrol-1-yl)benzoate] | 1.6 (≈ 4.08 µM) | 9 | 296 ± 0.3 (≈ 754 µM) | 1.6 (≈ 4.08 µM) | 6.25 (≈ 15.9 µM) | 133 | – | – | – | –
4 | NC(=O)c1cnccn1 [Pyrazinamide, reference compound] | 3.12 (≈ 25.3 µM) | – | – | – | – | – | – | – | – | –
5 | O=C(COC(=O)c1ccc(-n2cccc2)cc1)NN=Cc1ccccc1 [Compound 6a, 2-(2-benzylidenehydrazinyl)-2-oxoethyl 4-(1H-pyrrol-1-yl)benzoate] | 1.6 (≈ 4.61 µM) | 13 | 244 ± 0.8 (≈ 702 µM) | 1.6 (≈ 4.61 µM) | 12.5 (≈ 36 µM) | 132 | – | – | – | –
6 | CC(=NNC(=O)COC(=O)c1ccc(-n2cccc2)cc1)c1ccccc1 [Compound 5a, 2-oxo-2-(2-(1-phenylethylidene)hydrazinyl)ethyl 4-(1H-pyrrol-1-yl)benzoate] | 1.6 (≈ 4.43 µM) | 26 | 225 ± 0.3 (≈ 623 µM) | 1.6 (≈ 4.43 µM) | 12.5 (≈ 34.6 µM) | 95 | – | – | – | –
7 | O=C(COC(=O)c1ccc(-n2cccc2)cc1)NN=Cc1ccc(Cl)cc1 [Compound 6d, 2-(2-(4-chlorobenzylidene)hydrazinyl)-2-oxoethyl 4-(1H-pyrrol-1-yl)benzoate] | 0.8 (≈ 2.1 µM) | 18 | 262 ± 0.7 (≈ 686 µM) | 1.6 (≈ 4.19 µM) | 3.12 (≈ 8.17 µM) | 62 | moderate inhibition | 0.8 | – | –
8 | CC(=NNC(=O)COC(=O)c1ccc(-n2cccc2)cc1)c1ccc(Cl)cc1Cl [Compound 5n, 2-(2-(1-(2,4-dichlorophenyl)ethylidene)hydrazinyl)-2-oxoethyl 4-(1H-pyrrol-1-yl)benzoate] | 3.12 (≈ 7.25 µM) | – | – | 0.4 to 0.8 (≈ 0.93 to 1.86 µM) | 6.25 (≈ 14.5 µM) | 93 | – | – | 0.8 | –
9 | COc1ccc(C(C)=NNC(=O)COC(=O)c2ccc(-n3cccc3)cc2)cc1 [Compound 5i, 2-(2-(1-(4-methoxyphenyl)ethylidene)hydrazinyl)-2-oxoethyl 4-(1H-pyrrol-1-yl)benzoate] | 3.12 (≈ 7.97 µM) | – | – | 1.6 (≈ 4.09 µM) | 6.25 (≈ 16 µM) | 129 | – | – | – | –
10 | O=C(COC(=O)c1ccc(-n2cccc2)cc1)NN=Cc1ccccc1Br [Compound 6b, 2-(2-(2-bromobenzylidene)hydrazinyl)-2-oxoethyl 4-(1H-pyrrol-1-yl)benzoate] | 1.6 (≈ 3.75 µM) | – | – | 1.6 (≈ 3.75 µM) | 3.12 (≈ 7.32 µM) | 130 | – | – | – | no inhibition
11 | CC(=NNC(=O)COC(=O)c1ccc(-n2cccc2)cc1)c1ccc(Cl)cc1 [Compound 5c, 2-(2-(1-(4-chlorophenyl)ethylidene)hydrazinyl)-2-oxoethyl 4-(1H-pyrrol-1-yl)benzoate] | 1.6 (≈ 4.04 µM) | – | – | 1.6 (≈ 4.04 µM) | 6.25 (≈ 15.8 µM) | 100 | – | – | – | –
12 | O=C(O)c1cn(C2CC2)c2cc(N3CCNCC3)c(F)cc2c1=O [Ciprofloxacin, reference compound] | – | – | – | 2 (≈ 6.04 µM) | 2 (≈ 6.04 µM) | – | – | – | – | –
13 | O=C(OCC(=O)n1[nH]c(=O)c2ccccc2c1=O)c1ccc(-n2cccc2)cc1 [Compound 4a, 2-(1,4-dioxo-3,4-dihydrophthalazin-2(1H)-yl)-2-oxoethyl 4-(1H-pyrrol-1-yl)benzoate] | 1.6 (≈ 4.11 µM) | 43 | 315 ± 0.3 (≈ 809 µM) | 3.12 (≈ 8.01 µM) | 12.5 (≈ 32.1 µM) | 23 | greater inhibition characteristics than trimethoprim | – | – | –

— publication PMC12088000, “Design, synthesis and in silico molecular modelling studies of 2-Hydrazineyl-2-oxoethyl-4-(1H-pyrrol-1-yb) benzoate derivatives: a potent dual DHFR and ENR-reductase inhibitors with antitubercular, antibacterial and cytotoxic potential” (PLOS One, 2025)
